Assay results published in patent publication US5908868A, “Retinol derivatives useful for enhancing immune response” (priority 1995, dated 1999).
“Also recorded” adds a separate entry of the source.

Columns and labels:
[1] = test system: T cells; test: T cell activation/proliferation; type: cell-based, murine; settings: for activity in T cell activation relative to natural 13,14-DHR: synthetic isomers; for substitution for retinol in T cell activation: with mitogen/anti-CD3
Procedure: (§1) They were seeded into 96-well flat-bottom plates at varying cellular densities in a final volume of 100 μl. In control experiments, cells were cultured in medium containing 10% FCS or 3% human serum and 5×10^-5 M 2 ME. […] Cultures were carried out in duplicate. Plates were incubated at 37° C. in a humidified 5% CO2 atmosphere. Cellular proliferation was determined by [^3 H] thymidine uptake (0.5 uCi/well; New England Nuclear, Boston, Mass.) after the incubation times indicated for each experiment with a 4 hour labeling pulse. Cells were harvested onto glass filter and [^3 H]TdR incorporation was determined by liquid scintillation counting. The data presented are the means of duplicate or six replicate cultures. The restriction to duplicate measurements was necessary to conserve scarce 14HRR. […] Each experiment was repeated at least twice.

[2] = test system: B lymphocytes; test: B cell growth/survival; type: cell-based; settings: synthetic isomers
[3] = test system: thymocytes; test: Proliferation of anti-CD3e activated thymocytes in serum-free medium; type: cell-based, BALB/c mouse
Procedure: FIG. 14A: Purified BALB/c thymocytes were activated with immobilized anti-CD3e antibody and cultivated for four days in ITLB medium with or without retinol (3×10^-6 M), 14HRR (6×10^-7 M) (fresh 14HRR was added every 12 hours), human serum (3%) or FCS (10%) at the cellular densities shown. Proliferation was assayed by tritiated thymidine incorporation into cellular DNA. The SDs were below 20%.
FIG. 14B: BALB/c thymocytes (10^6 /ml) were added to microtiter plates coated with titrated amounts of anti-CD3e antibody with […] retinol or without, as indicated. Proliferation was measured in hexaduplicate wells on day 3 by ^3 H thymidine incorporation assay.
FIG. 14C: BALB/c thymocytes (3×10^6 /ml) were activated with anti-CD3e mAb as FIG. 1A. The total number of viable cells was determined by counting trypan blue-excluding cells, and those of blast cells by counting viable large cells in six replicate wells. Because of the relatively low cell density required in the culture (see FIG. 14A), the numbers reported for blast cells are best estimates.
Purified thymocytes (5×10^5 cells/well) were stimulated by TCR crosslinking with immobilized anti-CD3e antibody (FIG. 15A) or 0.4 μg/ml Con A (FIG. 15B) in serum-free ITLB medium. The indicated amounts of retinoids were added either once at the beginning of the experiment (marked as "1x") or every 12 hours thereafter (marked as "6x"). DNA synthesis was measured after 72 hours by tritiated thymidine uptake as described.
Purified thymocytes (10^5 cells/well) were activated with anti-CD3 antibody in ITLB medium with or without retinol (3×10^-6 M), 14HRR (6×10^-7, added every 12 hours or human serum (3%)). DNA synthesis was measured daily by a 4 hour pulse of tritiated thymidine. SDs were ≤12%.
Thymocytes (5×10^4 /well) were activated by immobilized anti-CD3 mAb in medium ITLB. Retinol (2×10^-6 M) was added at initiation of culture, or delayed by 12 hours and 24 hours, respectively, or omitted altogether. ^3 H thymidine pulses of 4 hours were used to measure DNA synthesis of hexaduplicate wells. (SDs were 20% or less.)
Thymuses of 3 to 6-week-old BALB/c mice were teased in serum-free RPMI medium supplemented with 1% BSA, 10^-6 M linoleic acid and antibiotics. Depletion of accessory cells was achieved by two cycles of complement-dependent lysis with a mixture of anti-IA^d (5 μg/ml) and anti-Itd (1:500 diluted ascites fluid). Briefly, cells were incubated on ice for 30 minutes with Ia antibodies, spun down, resuspended in 1:40 diluted rabbit complement, and incubated at 37° C. for 45 minutes. Incubations and two subsequent washes were carried out with RPMI medium containing 1% BSA. Cell viability was evaluated by trypan blue dye exclusion. To determine the extent of depletion of accessory cells, samples were stained with FITC-conjugated anti-Fc receptor antibody and analyzed by flow cytometry on a FACScan instrument (Becton Dickinson). No FcR-bearing cells were detected by this procedure.
Cells were cultured in serum-free medium, referred to as ITLB, containing RPMI 1640 supplemented with 8×10^-7 M insulin (5 μg/ml), 7×10^-8 M transferrin (5 μg/ml), 2×10^-6 M linoleic acid, 2×10^-6 M delipidated BSA (0.12 mg/ml), 2 mM L-glutamine, 1 mM sodium pyruvate and antibiotics. They were seeded into 96-well flat-bottom plates at varying cellular densities in a final volume of 100 μl. In control experiments, cells were cultured in medium containing 10% FCS or 3% human serum and 5×10^-5 M 2 ME. T cells and thymocytes were activated with immobilized, purified anti-mab CD3e or by the addition of Con A in the presence or absence of different concentrations of retinoids. Unless indicated otherwise, retinoids were replenished every 12 hours to maintain a reasonably constant concentration of these labile compounds in culture. […]

[4] = test system: B lymphocytes; settings: previous analyses with B lymphocytes (33); cited from earlier work
[5] = test system: lymphoblastoid cells (LCL); settings: serum-free medium; cited from earlier work
[6] = test system: thymocytes; test: Growth-stimulating effect of retinol on anti-CD3 activated thymocytes in the presence of interleukins; type: cell-based, BALB/c mouse; settings: for substitution for retinol by lymphokines/cytokines: anti-CD3-activated thymocytes; for substitution for retinol by lymphokines/cytokines / CPM anti-CD3, no Retinol: no retinol; for CPM anti-CD3, no Retinol: 3 days
Procedure: as §1, with “Cells were cultured in serum-free medium, referred to as ITLB, containing RPMI 1640 supplemented with 8×10^-7 M insulin (5 μg/ml), 7×10^-8 M transferrin (5 μg/ml), 2×10^-6 M linoleic acid, 2×10^-6 M delipidated BSA (0.12 mg/ml), 2 mM L-glutamine, 1 mM sodium pyruvate and antibiotics. They” for “They”, “ME. T cells and thymocytes were activated with immobilized, purified anti-mab CD3e or by the addition of Con A in the presence or absence of different concentrations of retinoids. Unless indicated otherwise, retinoids were replenished every 12 hours to maintain a reasonably constant concentration of these labile compounds in culture.” for “ME.”
Proliferation of activated thymocytes in response to interleukins in presence and absence of retinol. Purified thymocytes (5×10^5 cells/well) were activated with immobilized anti-CD3 antibody in serum-free medium in the presence or absence of interleukins and retinol (3×10^-6 M). Proliferation was assayed after three days by tritiated thymidine incorporation.

[7] = test system: thymocytes; test: as above; type: cell-based, BALB/c mouse; settings: 3 days

CC1=C(/C=C/C(C)=C\C=C\[C@@](C)(O)[C@H](O)CO)C(C)(C)CCC1 [9-cis-(13R, 14R)-DHR]
activity in T cell activation relative to natural 13,14-DHR [1]: same activity | activity in supporting B cell growth relative to natural 13,14-DHR [2]: same activity

CC1=C(/C=C/C(C)=C\C=C\[C@](C)(O)[C@H](O)CO)C(C)(C)CCC1 [9-cis-(13S, 14R)-DHR]
activity in T cell activation relative to natural 13,14-DHR [1]: same activity | activity in supporting B cell growth relative to natural 13,14-DHR [2]: same activity

CC1=C(/C=C/C(C)=C/C=C/C(C)=C\CO)C(C)(C)CCC1 [13-cis-retinol]
effectiveness relative to all-trans retinol [3]: equally effective as all-trans retinol | substitution for retinol in T cell activation [1]: can substitute for retinol

CC1=C(/C=C/C(C)=C/C=C/[C@@](C)(O)[C@H](O)CO)C(C)(C)CCC1 [all-trans (13R, 14R)-DHR]
activity in T cell activation relative to natural 13,14-DHR [1]: same activity | activity in supporting B cell growth relative to natural 13,14-DHR [2]: same activity

CC1=C(/C=C/C(C)=C/C=C/[C@](C)(O)[C@H](O)CO)C(C)(C)CCC1 [all-trans (13S, 14R)-DHR]
activity in T cell activation relative to natural 13,14-DHR [1]: same activity | activity in supporting B cell growth relative to natural 13,14-DHR [2]: same activity

CC1=C(/C=C/C(C)=C/C=C/C(C)=C/C=O)C(C)(C)CCC1 [all-trans retinal]
concentration at which activity was demonstrated [4]: 200 nM | support of growth of LCL [5]: support the growth of LCL | effectiveness relative to all-trans retinol [3]: equally effective as all-trans retinol | substitution for retinol in T cell activation [1]: can substitute for retinol

IL-6: hrIL-6 purchased from Boehringer Mannheim
substitution for retinol by lymphokines/cytokines [6]: None and none | CPM anti-CD3, no Retinol [6]: 1,005 ± 815 CPM | CPM anti-CD3, 10^-6 M Retinol [7]: 130,590 ± 25,803 CPM

TNF-alpha
substitution for retinol by lymphokines/cytokines [6]: none | substitution for retinol by lymphokines/cytokines ([6]; listed as TNF-α): does not | CPM anti-CD3, no Retinol [6]: 464 ± 95 CPM | CPM anti-CD3, 10^-6 M Retinol [7]: 122,905 ± 11,577 CPM | substitution for retinol in T cell activation [1]: cannot be satisfied

B1: IFN-gamma: mouse recombinant IFN-gamma (protein, UniProt P01580 23-155, looked up)
Interferon gamma: HGTVIESLESLNNYFNSSGIDVEEKSLFLDIWRNWQKDGDMKILQSQIISFYLRLFEVLKDNQAISNNISVIESHLITTFFSNSKAKKDAFMSIAKFEVNNPQVQRQAFNELIRVVHQLLPESSLRKRKRSRC
substitution for retinol by lymphokines/cytokines [6]: can circumvent the retinol requirement and initiate durable proliferation in the absence of retinol or 14HRR | substitution for retinol by lymphokines/cytokines ([6]; listed as interferon-gamma): can sustain thymocyte proliferation in the absence of retinol; also recorded: quite efficient in anti-CD3-mediated activation in the absence of retinol | CPM anti-CD3, no Retinol [6]: 81,876 ± 11,866 CPM | synergy with retinol [6]: strong additive effects | synergy with retinol ([6]; listed as Interferon-gamma): clear additive effect with retinol | CPM anti-CD3, 10^-6 M Retinol [7]: 220,359 ± 27,726 CPM | substitution for retinol in T cell activation [1]: can substitute for retinol

B2: IL-4: murine rIL-4 (protein, UniProt P07750 21-140, looked up)
Interleukin-4: HIHGCDKNHLREIIGILNEVTGEGTPCTEMDVPNVLTATKNTTESELVCRASKVLRIFYLKHGKTPCLKKNSSVLMELQRLFRAFRCLDSSISCTMNESKSTSLKDFLESLKSIMQMDYS
substitution for retinol by lymphokines/cytokines [6]: None and none | CPM anti-CD3, no Retinol [6]: 991 ± 105 CPM | CPM anti-CD3, 10^-6 M Retinol [7]: 115,849 ± 20,630 CPM

B3: IL-1: Human recombinant IL-1-α (protein, UniProt P01583 113-271, looked up)
Interleukin-1 alpha: SAPFSFLSNVKYNFMRIIKYEFILNDALNQSIIRANDQYLTAAALHNLDEAVKFDMGAYKSSKDDAKITVILRISKTQLYVTAQDEDQPVLLKEMPEIPKTITGSETNLLFFWETHGTKNYFTSVAHPNLFIATKQDYWVCLAGGPPSITDFQILENQA
substitution for retinol by lymphokines/cytokines [6]: None and none | CPM anti-CD3, no Retinol [6]: 959 ± 30 CPM | CPM anti-CD3, 10^-6 M Retinol [7]: 118,924 ± 3,051 CPM
